In paper PMC6910946, “Multiple roles of Bet v 1 ligands in allergen stabilization and modulation of endosomal protease activity” (Allergy, 2019):
Entries after “also recorded” stand apart in the source; their conditions may differ. Where two headings read alike, the source gives them in different places.

Key:
Bet_v_1 [1] = target: T1, Bet_v_1 (Betula pendula, UniProt P15494); assay: Surface acoustic wave (SAW) interaction studies, determination of Kd; type: binding
T1 construct: made in house
T1 sequence (P15494 1-160): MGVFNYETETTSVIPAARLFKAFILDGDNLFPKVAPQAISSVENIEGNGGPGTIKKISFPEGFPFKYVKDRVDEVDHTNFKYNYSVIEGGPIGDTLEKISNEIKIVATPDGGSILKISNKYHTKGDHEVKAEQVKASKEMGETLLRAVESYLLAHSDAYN
Description: (§1) Surface acoustic wave (SAW) technology and NMR spectroscopy were used to observe the interaction of Bet_v_1 with the selected compounds, including determination of the dissociation constant (K d). The influence of ligand binding on the secondary structure elements and the thermal stability of Bet_v_1 was monitored using circular dichroism (CD, JASCO J‐815 spectropolarimeter, Jasco) and Fourier transform infrared (FTIR) spectroscopy (Tensor II FTIR system, Bruker Optics Inc). A detailed description of these methods is available (Appendix [Link], [Link]).
To assess the interactions between Bet_v_1 and Q3OS, DOC, PPE1, LTA, or LPS, we determined the dissociation constants (K d) using SAW binding assays (Table 1, Figure S1), a more quantitative approach than previously described qualitative assays.11, 25 In addition, the LPS‐substructure Kdo2‐Lipid A (Kdo2) was used for binding studies, due to its more homogenous structure but similar immune stimulatory activity when compared to native LPS.
For the determination of the affinity constant Kd, we used surface acoustic wave (SAW) technology. The interaction of the six ligands with Bet v 1 was investigated using a sam® 5BLUE biosensor instrument (Nanotemper, Munich, Germany). Bet v 1 was immobilized in PBS on the surface of a SAW CM-Dextran 3D sensor chip. […] For calculating the affinity constant Kd, different concentrations of the ligands dissolved in a 5 mM sodium phosphate buffer, pH 7.4, were applied to the Bet v 1-coupled chip. Depending on the ligand, the concentration range of the injected ligand varied between 5 µM and 500 µM. For the removal of residual ligand between the sample injections, the chip was washed with regeneration buffer (10 mM citric acid buffer, pH 2.8). The recorded SAW phase changes were analyzed using the software TraceDrawer 1.7 (Ridgeview Instruments, Uppsala, Sweden). The affinity constant Kd was calculated by kinetic evaluation and affinity/EC50 estimation. For kinetic evaluation, an OneToOne curve fit was chosen to match the raw data. Experiments were performed with two coated chips in duplicate, and the coupling efficiency was evaluated using a mouse monoclonal anti-Bet v 1 antibody.

Bet_v_1 [2] = target: T1, Bet_v_1; assay: Thermal stability and secondary structure of Bet v 1 by circular dichroism (CD); type: physicochemical, Betula verrucosa; settings: for increased melting point (T m) of Bet v 1 bound to ligand: CD and FTIR spectroscopy; for ΔCD: change of Tm of Bet v 1 versus no ligand
Description: as §1
The influence of ligand binding on the secondary structure elements and the thermal stability of Bet v 1 was addressed by circular dichroism (CD) and Fourier transform infrared (FTIR) spectroscopy. CD spectroscopy was performed with a JASCO J-815 spectropolarimeter fitted with a PTC-423S Peltier-type single position cell holder (Jasco, Tokyo, Japan) over the wavelength range 190 to 260 nm. For measurement, Bet v 1 with and without ligand was diluted in a 10 mM potassium phosphate buffer to a concentration of 0.1 mg/ml. The thermal stability analysis was recorded at 222 nm. The protein was denatured with a temperature slope of 1°C/min from 20 to 95°C.

[3] = system: rat basophil (RBL‐2H3) cells transfected with the human high‐affinity IgE receptor (FcεRI); assay: Mediator release assay (IgE cross-linking, basophil degranulation); type: cell-based; settings: sera of six birch pollen allergic subjects
Description: (§2) The ability of ligand‐loaded Bet_v_1 to induce IgE‐antigen cross‐linking and basophil degranulation was assessed by mediator‐release assays using rat basophil (RBL‐2H3) cells, transfected with the human high‐affinity IgE receptor (FcεRI), as previously described.2, 24 In vitro uptake of labeled Bet_v_1 was performed using CD11c^+ murine bone marrow–derived dendritic cells (BMDCs). The maturation of human monocyte‐derived dendritic cells (moDCs) was analyzed as previously described.2 T‐cell proliferation assays using CD4^+ T‐cell hybridomas were performed as previously described.17 A detailed description of the in vitro assays is available (Appendix [Link], [Link]).
A mediator-release assay was performed to assess the capacity of ligand-loaded Bet v 1 to induce IgE-antigen-crosslinking and basophil degranulation. In this respect, rat basophil (RBL-2H3) cells, transfected with the human high-affinity IgE receptor (FcεRI) were passively sensitized with sera of six subjects allergic to birch pollen (1:10), and used as previously described.^4 For cell-stimulation, Bet v 1 was used at 10-fold dilutions from 1 µg/ml to 0.01 pg/ml. Toxicity of ligands on RBL-2H3 was determined by cell viability assay using MTT (3-(4,5-Dimethylthiazol-2-yl)-2,5-Diphenyltetrazolium Bromide) from Sigma-Aldrich, Inc. (St. Louis, MO, USA). Results were expressed as percentage of total enzyme release of cells lysed with Triton X-100, and the half maximal release (in ng) was determined. Statistics were calculated with a repeated ANOVA followed by a Dunnett post-hoc test of logarithmically transformed half maximal release values (not significant, ns P > 0.05, *P < 0.05, **P < 0.01, and ***P < 0.001).

[4] = system: murine BMDCs / CD4+ T‐cell hybridoma cells specific for epitope Thr142‐Ala153; assay: T-cell proliferation assay: Bet v 1 epitope presentation by BMDCs to CD4+ T-cell hybridomas (IL-2); type: cell-based, mouse; settings: Bet v 1 10 µg/mL with 10-fold molar excess of ligand; 16, 24, 32, 48 h
Description: as §2
In order to test the relevance of the identified Bet_v_1 ligands in processing and presentation by DCs in a time‐dependent manner, we incubated BMDCs with Bet_v_1 in complex with different ligands and detected the presentation of Bet_v_1 by using CD4^+ T‐cell hybridoma cells specific for the immune‐dominant T‐cell epitope (Thr142‐Ala153). T‐cell proliferation was monitored indirectly by IL‐2 secretion (Figure 5).
Bet v 1 was incubated over night with a 10-fold molar excess of either Q3OS, PPB1, PPE1, or DOC before incubation with murine BMDCs at a concentration of 10 μg/mL in BMDC medium (online supporting information). After 16, 24, 32, and 48h, DCs were washed and CD4^+ T-cell hybridomas specific for the immune-dominant epitope 142-153 of Bet v 1 were added to the culture at a ratio of 1:10 (DC:T-cell) for 24h^17. Supernatants were harvested and IL-2 levels were determined by ELISA (Invitrogen, Thermo Fisher Scientific, Waltham, MA, USA). As a reference, BMDCs were pulsed at each time point with different concentrations of peptide 142-153 and co-cultured with CD4^+ T-cell hybridomas. By interpolating in a standard curve, a µM peptide equivalent from the measured IL-2 was calculated from DCs pulsed with different peptide concentrations. The assays were carried out in triplicates.

[5] = Bet v 1 immobilized on chip, ligands in 5 mM sodium phosphate buffer pH 7.4, read-out: Binding affinity K d (SAW)
[6] = melting point of Bet v 1 with or without ligand, 222 nm

SMILES	Kd (Bet_v_1 [1]; Binding affinity K d (SAW)) [µM]	Kd (Bet_v_1 [1]; Kd (SAW, Fig. S1)) [µM]	T m CD (Bet_v_1 [2]) [°C]	secondary structure content of Bet v 1 (Bet_v_1 [2])	increased melting point (T m) of Bet v 1 bound to ligand (Bet_v_1 [2])	IgE cross‐linking by Bet v 1‐complexes (RBL assay) [3]	MHCII presentation of Bet v 1 epitope (Thr142‐Ala153) on DCs, IL‐2 secretion [4]	Kd (Bet_v_1 [1]; [5]) [µM]	secondary structure content of Bet v 1 (Bet_v_1 [2]; CD and FTIR, Figure S4)	ΔCD (Bet_v_1 [2])	T m CD (Bet_v_1 [2]; [6]) [°C]	Kd (Bet_v_1 [1]; Fig. S1 sensorgrams, read-out: Kd (SAW, Fig. S1)) [µM]
C[C@H](CCC(=O)O)[C@H]1CC[C@H]2[C@@H]3CC[C@@H]4C[C@H](O)CC[C@]4(C)[C@H]3C[C@H](O)[C@]12C [DOC, sodium deoxycholate, reference compound]	58.8	58.8	67.44	did not significantly alter its secondary structure content	approximately 4 °C	None of the above described readouts was influenced	affected only after 48 hours					
CCC1C(=O)CC(O)C1/C=C/C(O)CCCCCCCC(=O)O (stereo not drawn) [PPE1, E1 phytoprostanes]					~7 °C	None of the above described readouts was influenced	consistently affected the MHCII presentation; also recorded: unique reduction in the presentation of the T‐cell epitopes	0.5	did not significantly alter its secondary structure content	+6.94 °C	70.62	
O=c1c(O[C@@H]2O[C@H](CO)[C@@H](O)[C@H](O)[C@H]2O[C@@H]2O[C@H](CO)[C@@H](O)[C@H](O)[C@H]2O)c(-c2ccc(O)c(O)c2)oc2cc(O)cc(O)c12 [Q3OS, quercetin 3‐O‐sophoroside]						None of the above described readouts was influenced	did not affect the presentation	1.5	did not significantly alter its secondary structure content	+0.36 °C	64.04	1.47
